# From patent US8329926B2, “Antiviral compounds” (Gilead Sciences, Inc., priority 2004, dated 2012)
# Where a name gives a salt, the structure may show the parent alone. Read-outs that look alike come from different tables or passages of the source.
# Tests used:
# HIV-1 = test: Anti-HIV-1 activity (EC50); format: cell-based
# mtDNA = mtDNA IC50; format: cell-based
# K65R = settings: FIG. 1
# 6TAM = settings: FIG. 1
# M184V = settings: FIG. 1
compound,measurement,setting,value
"Nc1ncnc2c1ncn2[C@@H]1O[C@H](OCP(=O)(O)O)C=C1F [2′F-d4AP, (2′R, 5′R)-9-(3-fluoro-2,5-dihydro-5-phosphonomethoxy-2-furanyl)adenine di sodium salt]",EC50,HIV-1; read-out: EC50 [uM] HIV-1,1 to 100 µM
same,IC50,"mtDNA; FIG. 2, read-out: IC50 [uM] mtDNA",100 to 1000 µM
same,CC50,MT-2,< 1000 µM
Nc1nc(N)c2ncn([C@@H]3O[C@H](OCP(=O)(O)O)C=C3F)c2n1 [2′F-d4DAPP],EC50,HIV-1; read-out: EC50 [uM] HIV-1,100 to 1000 µM
C[C@H](Cn1cnc2c(N)ncnc21)OCP(=O)(O)O [Tenofovir],EC50,"HIV-1; FIG. 1, read-out: EC50 [uM] HIV-1",1 to 100 µM
same,IC50,"mtDNA; FIG. 1, read-out: mtDNA 1050",100 to 1000 µM
same,CC50,MT-2,< 1000 µM
same,Resistance - fold EC50 K65R,K65R,+++ (+++=1-100)
same,Resistance - fold EC50 6TAM,6TAM,+++ (+++=1-100)
same,Resistance - fold EC50 M184V,M184V,++++ (++++=0.01-1)
CCCOC(=O)[C@H](C)NP(=O)(CO[C@@H]1C=C(F)[C@H](n2cnc3c(N)ncnc32)O1)N[C@@H](C)C(=O)OCCC [drawing 144 (Ala) n-Propyl],EC50,"HIV-1; Human immunodeficiency virus 1, FIG. 5, prodrugs by R1 (aa) and R2 (ester), read-out: EC50",0.1 to 1 µM
